Laboratory results as given in PubChem BioAssay (NCI).
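Following 48 hours of exposure in 96-well plates, responses at five concentrations were used to interpolate endpoints linearly. TGI: total growth inhibition.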

Tests used:
Experiment in all cases: NCI tumour cell line growth inhibition, 48 h
[1] = tested on: DMS 273 small cell lung
[2] = tested on: HOP-18 NSCLC
[3] = tested on: LXFL 529 NSCLC
[4] = tested on: RXF-631 renal
[5] = tested on: XF 498 CNS
[6] = tested on: SNB-78 CNS
[7] = tested on: MDA-N
[8] = tested on: P388 leukemia
[9] = tested on: P388/ADR leukemia
[10] = tested on: SN12K1 renal

Row | SMILES | TGI [1] | TGI [2] | TGI [3] | TGI [4] | TGI [5] | TGI [6] | TGI [7] | other results
1 | O=C(Cc1nc2ccccc2s1)Nc1cccc(C(F)(F)F)c1 | 42.9 µM | 33.5 µM | 27.3 µM | 26.8 µM | 28.4 µM | – | – | –
2 | NCCCNCCCCN(CCCN)/[N+]([O-])=N\O | > 100 µM | > 100 µM | > 100 µM | > 100 µM | – | > 100 µM | – | –
3 | COc1ccc(/C=c2\sc3n(c2=O)C(N)=C(C#N)C(c2ccc(OC)cc2)C=3c2nc3ccccc3[nH]2)cc1 (stereo unspecified) | > 100 µM | – | – | – | – | – | – | –
4 | Clc1ccc(C2SCc3nc4ccccc4n32)cc1Cl (stereo unspecified) | – | – | 24 µM | – | 24.4 µM | 29.1 µM | – | –
5 | COc1cc(COC(=O)N(CC(=O)O)c2ccccc2)c([N+](=O)[O-])cc1OC | – | – | – | – | – | – | > 100 µM | –
6 | CCCCCCCCCCCCCP(=O)(O)OCC | – | > 100 µM | > 100 µM | > 100 µM | – | > 100 µM | – | –
7 | C=C(Br)N(CC)CC | > 100 µM | > 100 µM | > 100 µM | > 100 µM | – | > 100 µM | – | –
8 | c1csc(-c2cc(-c3cccs3)c(-c3cccs3)s2)c1 | – | – | – | – | – | – | > 100 µM | –
9 | C1=CC=C2NCCCNC3=CC=CC=CC3=NCCCN=C2C=C1 | > 100 µM | – | > 100 µM | > 100 µM | > 100 µM | > 100 µM | – | –
10 | COC(=O)CCC(=O)CC(=O)C(=O)Nc1c(Cl)cc([N+](=O)[O-])cc1Cl | > 100 µM | > 100 µM | > 100 µM | > 100 µM | > 100 µM | > 100 µM | – | –
11 | CCc1cccc(C(C)C)c1NC(=O)C(=O)C(CC(=O)Nc1ccc(Cl)c(Cl)c1)C(=O)OC (stereo unspecified) | > 100 µM | > 100 µM | – | > 100 µM | > 100 µM | > 100 µM | – | –
12 | C[C@]1(CO)CCC[C@@]2(C)C1CC[C@H]1CC3C[C@]12CC[C@]3(C)O (stereo partly specified) | > 100 µM | – | – | > 100 µM | > 100 µM | > 100 µM | – | –
13 | O=C(O)c1cccc(N=Nc2c(S(=O)(=O)O)ccc3c2C(=O)c2ccccc2C3=O)c1O | – | – | – | – | – | – | > 100 µM | –
14 | CCOC(=O)C1=C(C)N(c2ccc(C)cc2)C2=C(C(=O)N(c3ccccc3)C2c2ccccc2)C1c1ccccc1 (stereo unspecified) | > 25 µM | – | > 25 µM | > 25 µM | > 25 µM | – | – | –
15 | CCn1cc(C(=O)O)c(=O)c2cc3c(cc21)S(=O)(=O)CC3 | – | – | – | – | – | – | > 100 µM | –
16 | CN(C)CCNC(=O)c1cccc2c1nc(-c1ccccc1)c1ccccc12 | 13.2 µM | 27.9 µM | – | 3.06 µM | – | 26.4 µM | – | –
17 | Cc1cc(C)nc(NS(=O)(=O)c2ccc(Nc3c4ccc(Cl)cc4nc4c(C(=O)Nc5ccc(S(N)(=O)=O)cc5)cccc34)cc2)n1 | – | – | > 100 µM | 44.2 µM | 45.6 µM | > 100 µM | – | –
18 | O=C(CCC(=O)C(C(=O)c1ccccc1)c1ccccc1)Nc1cccc(C(F)(F)F)c1 (stereo unspecified) | > 100 µM | > 100 µM | > 100 µM | – | > 100 µM | > 100 µM | – | –
19 | COc1cc(OC)c(/C=C/c2cnc3ccccc3n2)c(OC)c1 | – | – | – | – | – | – | > 10 µM | –
20 | CCCCCCCCCCCC1CCCC(C)N1 (stereo unspecified) | 136 µM | 169 µM | – | – | 95.3 µM | 174 µM | – | TGI [8]: 23.9 µM; TGI [9]: 54.7 µM; TGI [10]: 86.4 µM
21 | COc1cc2c3c(c1OC)-c1c(ccc4c1OCO4)CC3(C#N)N(C(=O)c1ccccc1)CC2 (stereo unspecified) | > 100 µM | – | > 100 µM | > 100 µM | 60.2 µM | > 100 µM | – | –
22 | O=C1c2ccccc2C(=O)c2c1ccc(C1C(=O)c3ccccc3C1=O)c2-c1c(C2C(=O)c3ccccc3C2=O)ccc2c1C(=O)c1ccccc1C2=O | – | – | – | – | – | – | > 100 µM | –
23 | c1cc(CNCCN2CCNCC2)ccn1 | – | – | – | – | – | – | > 100 µM | –

Row | SMILES | TGI [1] | TGI [2] | TGI [3] | TGI [4] | TGI [5] | TGI [6] | TGI [7] | other results
24 | COC(=O)CCCC(=O)O | – | – | – | – | – | – | > 100 µM | –
25 | COc1ccc(/C(C#N)=C/c2ccc(OC)c(OC)c2)cc1 | – | – | – | – | – | – | > 100 µM | –
26 | CC1C[C@@H]2C(=O)NC(=O)[C@@H]2c2c1c1ccccc1n2C (stereo partly specified) | > 100 µM | – | > 100 µM | > 100 µM | > 100 µM | > 100 µM | – | –
27 | COCCCNC(=O)CC(=O)NCCCOC | – | > 100 µM | > 100 µM | > 100 µM | – | > 100 µM | – | –
28 | CCC(=O)c1c(NOC2OC(COC(C)=O)C(OC(C)=O)C(OC(C)=O)C2OC(C)=O)nc(OC)n(C)c1=O (stereo unspecified) | > 100 µM | – | > 100 µM | > 100 µM | > 100 µM | > 100 µM | – | –
29 | CCOC(=O)C(=Cc1ccc(Oc2ccccc2)cc1)C(=O)OCC | 3.68 µM | 26.8 µM | 6.39 µM | 12.1 µM | 11.3 µM | – | 18.6 µM | –
30 | O=C(NP(=O)(N1CC1)N1CC1)c1cc(I)ccc1I | > 100 µM | > 100 µM | > 100 µM | – | > 100 µM | > 100 µM | > 100 µM | –
31 | COc1cc(OC)c(C2CC=Cc3c(OC)cc(OC)c(OC)c32)cc1OC (stereo unspecified) | > 100 µM | > 100 µM | > 100 µM | – | > 100 µM | > 100 µM | – | –
32 | CCCCS(=O)(=O)CCC(N)C(=O)O (stereo unspecified) | – | – | – | – | – | – | > 100 µM | –
33 | CC(=O)c1ccc(NC(=O)C(=O)Nn2c(=S)[nH]c3ccccc3c2=O)cc1 | – | > 100 µM | > 100 µM | – | > 100 µM | > 100 µM | – | –
34 | O=[N+]([O-])c1cccc(-c2oc(C=Nc3ccccc3)c([N+](=O)[O-])c2-c2cccc([N+](=O)[O-])c2)c1 | > 100 µM | – | > 100 µM | > 100 µM | – | > 100 µM | – | –
35 | CCC1CN2CCc3c([nH]c4ccccc34)C2C[C@@H]1CC(=O)N(C)C (stereo partly specified) | > 100 µM | > 100 µM | > 100 µM | – | > 100 µM | > 100 µM | – | –
36 | COc1ccc2c(c1)n([O-])c1ccccc1[n+]2=O | – | – | – | – | – | – | > 100 µM | –
37 | O=C1C2C3C=CC(C2C(=O)N1COP(=O)(O)O)C1C2C(=O)N(COP(=O)(O)O)C(=O)C2C31 (stereo unspecified) | > 56.3 µM | > 100 µM | > 100 µM | – | > 100 µM | > 100 µM | – | –
38 | COC(=O)c1c(N)n[nH]c1N | > 100 µM | – | – | > 100 µM | > 100 µM | > 100 µM | – | –
39 | CC1OC(OC2C(O[C@H]3CC[C@@]4(C)C(=CC[C@H]5[C@@H]6C[C@@H]7O[C@]8(CC[C@H](C)CN8)[C@@H](C)[C@@H]7[C@@]6(C)CC[C@@H]54)C3)OC(CO)C(O)C2OC2OC(CO)C(O)C(O)C2O)C(O)C(O)C1O (stereo partly specified) | – | – | – | – | – | – | 36.1 µM | –
40 | O=C(Nc1nc2ncn(CCNCc3ccccc3)c2c(=O)[nH]1)c1ccccc1 | > 100 µM | > 100 µM | > 100 µM | > 100 µM | – | > 100 µM | – | –
41 | Cc1ccc(S(=O)(=O)OCC23CCC(CC2)C2CC23)cc1 (stereo unspecified) | > 100 µM | > 100 µM | > 100 µM | > 100 µM | – | – | – | –
42 | COC1OC(COCc2ccc(Cl)cc2)C(OCc2ccc(Cl)cc2)C1N=[N+]=[N-] (stereo unspecified) | – | > 100 µM | > 100 µM | – | > 100 µM | > 100 µM | – | –
43 | O=[N+]([O-])c1cccc(C2ON2C2CCCCC2)c1 (stereo unspecified) | 41.5 µM | > 100 µM | 45.6 µM | – | – | > 100 µM | – | –
44 | CSc1ccc(NC(=S)NN(C)C)cc1 | – | – | – | – | – | – | > 10 µM | –
45 | Cc1occc1C(=S)Nc1ccc(Cl)c(C(=O)OC(C)C2CC2)c1 (stereo unspecified) | – | – | – | – | – | – | 38.4 µM | –
